Three compounds from US6548543B1, “Remedies or preventives containing cyclopentenone compounds as the active ingredient” (Takara Shuzo Co., Ltd., priority 1998, dated 2003) can be followed below.

pIC50: −log10 of the molar value. Where only a bound is given, the exact number is not on record here.

In experiment [1] the test system is adhesion between vascular endothelial cells and HL-60 cells. The experiment in a line: Adhesion of HL-60 cells to TNF-α-stimulated vascular endothelial cells. Type of experiment: cell-based, Human. The following applies: for Adhesion rate: TNF-α-stimulated endothelial cells; for Suppression of TNF-α-induced increase in adhesion rate (statement): 10^−7 to 10^−4 M, dose-dependent. How it is done:
Human vascular endothelial cells (sold by Sanko Junyaku) suspended in RPMI-1640 medium (Gibco) containing 10% FCS (HyClone) at a concentration of 1×10^5 cells/ml. 100 μl/well of the suspension was seeded into a 96-well microtiter plate.
100 U/ml of human recombinant TNF-α (Promega) was added to monolayer of vascular endothelial cells after incubation at 37° C. for 2 days in a 5% CO2 incubator. The plate was incubated 37° C. for 6 hours in a 5% CO2 incubator to prepare vascular endothelial cells stimulated with TNF-α.
On the other hand, cyclopentenone, GM or dipropionylcyclopentenone at a varying concentration was added to HL-60 cells suspended in RPMI-1640 medium containing 10% FCS at a concentration of 1×10^6 cells/ml. The cells were cultured at 37° C. for 3 hours in a 5% CO2 incubator. After cultivation, 5 μM of 5(-and-6)-carboxyfluorescein diacetate, succinimide ester (Molecular Probe) as a fluorescent agent was added thereto and reacted at 37° C. for 10 minutes. The cells were washed twice with RPMI-1640 medium and suspended in RPMI-1640 medium containing 10% FCS to prepare a suspension of fluorescence-labeled HL-60 cells at a concentration of 1×10^6 cells/ml.
100 μl/well of the fluorescence-labeled HL-60 cells were overlaid onto the vascular endothelial cells stimulated with TNF-α. Cyclopentenone, GM or dipropionylcyclopentenone at a varying concentration was added thereto. The plate was incubated at 37° C. for 20 minutes in a 5% CO2 incubator for adhesion reaction between vascular endothelial cells and HL-60 cells.
After the adhesion reaction, the plate was washed to remove non-adhesive cells. 1% Triton X (Nacalai Tesque) was added thereto to destroy adhesive cells. The fluorescence intensity was measured using filters for 485/22 nm (excitation) and 530/25 nm (emission).
The adhesion rate which represents the ratio of cells adhered to vascular endothelial cells was determined defining the fluorescence intensity for 1×10^5 fluorescence-labeled cells as 100%.

Experiment [2] concerns spleen lymphocytes stimulated with Ehrlich ascites carcinoma cells. The experiment in a line: Cancer cell-specific proliferation of spleen lymphocytes from treated tumor-bearing mice. The class given is in vivo, ddY mice. The following applies: for Growth of spleen lymphocytes on stimulation with cancer cells (statement): mice administered intraperitoneally. How it is done: ddY mice (female, 7 weeks old) were purchased from Japan SLC and pre-bred 1 week before using in experiments.
1×10^6 Ehrlich ascites carcinoma cells were intraperitoneally inoculated to each mouse. 10 mg/kg of cyclopentene, 30 mg/kg of GM or 10 mg/kg of dipropionylcyclopentene was intraperitoneally administered to the mouse on the day after the inoculation. Saline was administered to a control mouse.
A spleen was taken out from the mouse 10 days after the inoculation with cancer cells, finely minced and suspended in RPMI-1640 medium (Gibco) containing 10% FCS (HyClone) to obtain a single cell suspension. Adhesive cells in the cell suspension adhered to a plastic Petri dish were removed and non-adhesive cells were used as spleen lymphocytes.
The spleen lymphocytes were suspended in RPMI-1640 medium containing 10% FCS at a concentration of 2×10^6/ml. 100 μl/well of the suspension was seeded into a microtiter plate.
Stimulated cells were prepared as follows. Mitomycin C (Kyowa Hakko Kogyo) was added to a concentration of 50 μg/ml to Ehrlich ascites carcinoma cells suspended in RPMI-1640 medium at a concentration of 2×10^6 cells/ml. The cells were treated at 37° C. for 30 minutes, washed twice and then suspended in RPMI-1640 medium containing 10% FCS to prepare stimulated cells at a concentration of 2×10^6 cells/ml. 100 μl of the thus prepared stimulated cells was overlaid onto each well of the plate into which 100 μl/well of the spleen lymphocytes had been added. The plate was incubated at 37° C. for 5 days in a 5% CO2 incubator. 37 kBq of ^3H-thymidine (Daiichi Pure Chemicals) was added to the well to pulse-label the cells on the day before the completion of the cultivation. After cultivation, the cells were harvested on a glass filter to measure the radioactivity.

In experiment [3] the test system is NK cells. The class given is in vivo, ddY mice. The following applies: mice administered intraperitoneally. As to the method: ddY mice (female, 7 weeks old) were purchased from Japan SLC and pre-bred for 1 week before using in experiments.
1×10^6 Ehrlich ascites carcinoma cells were intraperitoneally inoculated to each mouse. 10 mg/kg of cyclopentenone, 30 mg/kg of GM or 10 mg/kg of dipropionylcyclopentenone was intraperitoneally administered to the mouse on the day after the inoculation. Saline was administered to a control mouse.
A spleen was taken out from the mouse 10 days after the inoculation with cancer cells, finely minced and suspended in RPMI-1640 medium containing 10% FCS (HyClone) to obtain a single cell suspension. Adhesive cells adhered to a plastic Petri dish were removed from the cell suspension and non-adhesive cells were used as NK cells.
The NK cells were suspended in RPMI-1640 medium containing 10% FCS at a concentration of 6×10^6/ml. 100 μl/well of the suspension was seeded into a microtiter plate.
Target cells were prepared as follows. 3700 kBq of ^51Cr (Amersham) was added to 1×10^6 YAC-1 cells (Dainippon Pharmaceutical). The cells were cultured at 37° C. for 1 hour for labeling. The labeled cells were washed twice and then suspended in RPMI-1640 medium containing 10% FCS at a concentration of 2×10^5 cells/ml. […] The radioactivity (experimental value) was measured using an auto gamma counter.
100 μl of the culture medium was added to the reaction system in place of the NK cells and the radioactivity was measured in order to measure the radioactivity spontaneously released from the target cells (control value).
Furthermore, the radioactivity released into the supernatant when 1% Triton (Nacalai Tesque) was added to the reaction system to lyse the 51Cr-labeled YAC-1 cells was measured in order to measure the total radioactivity contained in the reaction system (total radioactivity value).
The cytotoxicity (%) specifically mediated by the NK cells can be determined according to the following equation.
Cytotoxicity (%)=[(experimental value−control value)/(total radioactivity value−control value)]×100

Experiment [4] deals with HL-60 (ATCC CCL-240) cells. The experiment in a line: Viability and apoptosis of HL-60 cells (Trypan Blue, optical microscope). The class given is cell-based. To be noted: Homo sapiens, 24 hours, Trypan Blue, read-out: Viability50 (concentration that results in a viability of 50%). How it is done:
HL-60 (ATCC CCL-240) cells were cultured at 37° C. in RPMI 1640 medium (Bio Whittaker) containing 10% fetal calf serum (FCS; JRH) which had been treated at 56° C. for 30 minutes and suspended in RPMI 1640 medium at a concentration of 2.5×10^5 cells/5 ml.
10 μl each of solutions of diisobutyrylcyclopentenone, dimethoxyacetylcyclopentenone, dimethylfumarylcyclopentenone or dimethylmaleylcyclopentenone in 70% ethanol in water diluted to varying concentrations was added to 5 ml of the suspension. The mixtures were incubated at 37° C. for 24 hours in the presence of 5% Co2. 10 μl of aqueous actinomycin D (Sigma) solution (0.5 mg/ml), which is known as a reagent that induces apoptosis, was used in place of the sample and the mixture was incubated under the same conditions for confirmation.
The cultured cells were examined under an optical microscope.
Furthermore, a portion of the cells cultured as described above was stained with 0.4% Trypan Blue and examined under an optical microscope. The number of viable cells which were not stained and the number of dead cells which were stained blue were counted. The concentration of each of the samples that results in a viability of 50% (Viability50 μM) was determined.

Experiment [5] has as its target T1, topoisomerase II (Homo sapiens, UniProt P11388).
T1 construct: purchased TopoGEN
The experiment in a line: Topoisomerase II inhibition, pBR322 DNA relaxation. To be noted: 37° C., 30 minutes. Type of experiment: biochemical. How it is done:
(1) 2 μl of topoisomerase II (TopoGEN; 2 units/μl), 2 μl of 10-fold concentrated buffer [0.5 M Tris-HCl (pH 8.0), 1.2 M KCl, 0.1 M MgCl2, 2.5 mM adenosine triphosphate, 5 mM dithiothreitol], 2 μl of 0.1% bovine serum albumin (Takara Shuzo), 11 μl of distilled water and 2 μl of distilled water (control) or 2 μl of one of aqueous solutions of dipropionylcyclopentenone, diisobutyrylcyclopentenone, dibenzoylcyclopentenone, dihexanoylcyclopentenone, di-2-hexenoylcyclopentenone, dimethoxyacetylcyclopentenone, dimethylfumarylcyclopentenone or dimethylmaleylcyclopentenone at varying concentrations were mixed together. 1 μl of 0.25 μg/μl pBR322 DNA (Takara Shuzo) was added thereto. The resulting mixture was reacted at 37° C. After reacting for 30 minutes, 2 μl of an aqueous solution containing 1% sodium dodecyl sulfate, 50% glycerol and 0.02% Bromophenol Blue was added thereto to stop the reaction.
20 μl of the reaction mixture was applied to 1% agarose gel prepared using agarose L03 (Takara Shuzo) and TAE buffer [40 mM Tris, 5 mM sodium acetate, 1 mm ethylenediaminetetraacetic acid disodium salt (EDTA); adjusted to pH 7.8 using acetic acid] and electrophoresed in TAE buffer. After electrophoresis, the gel was soaked in a 1 μg/ml aqueous ethidium bromide solution. The gel was exposed to ultraviolet rays to visualize the electophoretic pattern of DNA.

T1 sequence (P11388 whole entry): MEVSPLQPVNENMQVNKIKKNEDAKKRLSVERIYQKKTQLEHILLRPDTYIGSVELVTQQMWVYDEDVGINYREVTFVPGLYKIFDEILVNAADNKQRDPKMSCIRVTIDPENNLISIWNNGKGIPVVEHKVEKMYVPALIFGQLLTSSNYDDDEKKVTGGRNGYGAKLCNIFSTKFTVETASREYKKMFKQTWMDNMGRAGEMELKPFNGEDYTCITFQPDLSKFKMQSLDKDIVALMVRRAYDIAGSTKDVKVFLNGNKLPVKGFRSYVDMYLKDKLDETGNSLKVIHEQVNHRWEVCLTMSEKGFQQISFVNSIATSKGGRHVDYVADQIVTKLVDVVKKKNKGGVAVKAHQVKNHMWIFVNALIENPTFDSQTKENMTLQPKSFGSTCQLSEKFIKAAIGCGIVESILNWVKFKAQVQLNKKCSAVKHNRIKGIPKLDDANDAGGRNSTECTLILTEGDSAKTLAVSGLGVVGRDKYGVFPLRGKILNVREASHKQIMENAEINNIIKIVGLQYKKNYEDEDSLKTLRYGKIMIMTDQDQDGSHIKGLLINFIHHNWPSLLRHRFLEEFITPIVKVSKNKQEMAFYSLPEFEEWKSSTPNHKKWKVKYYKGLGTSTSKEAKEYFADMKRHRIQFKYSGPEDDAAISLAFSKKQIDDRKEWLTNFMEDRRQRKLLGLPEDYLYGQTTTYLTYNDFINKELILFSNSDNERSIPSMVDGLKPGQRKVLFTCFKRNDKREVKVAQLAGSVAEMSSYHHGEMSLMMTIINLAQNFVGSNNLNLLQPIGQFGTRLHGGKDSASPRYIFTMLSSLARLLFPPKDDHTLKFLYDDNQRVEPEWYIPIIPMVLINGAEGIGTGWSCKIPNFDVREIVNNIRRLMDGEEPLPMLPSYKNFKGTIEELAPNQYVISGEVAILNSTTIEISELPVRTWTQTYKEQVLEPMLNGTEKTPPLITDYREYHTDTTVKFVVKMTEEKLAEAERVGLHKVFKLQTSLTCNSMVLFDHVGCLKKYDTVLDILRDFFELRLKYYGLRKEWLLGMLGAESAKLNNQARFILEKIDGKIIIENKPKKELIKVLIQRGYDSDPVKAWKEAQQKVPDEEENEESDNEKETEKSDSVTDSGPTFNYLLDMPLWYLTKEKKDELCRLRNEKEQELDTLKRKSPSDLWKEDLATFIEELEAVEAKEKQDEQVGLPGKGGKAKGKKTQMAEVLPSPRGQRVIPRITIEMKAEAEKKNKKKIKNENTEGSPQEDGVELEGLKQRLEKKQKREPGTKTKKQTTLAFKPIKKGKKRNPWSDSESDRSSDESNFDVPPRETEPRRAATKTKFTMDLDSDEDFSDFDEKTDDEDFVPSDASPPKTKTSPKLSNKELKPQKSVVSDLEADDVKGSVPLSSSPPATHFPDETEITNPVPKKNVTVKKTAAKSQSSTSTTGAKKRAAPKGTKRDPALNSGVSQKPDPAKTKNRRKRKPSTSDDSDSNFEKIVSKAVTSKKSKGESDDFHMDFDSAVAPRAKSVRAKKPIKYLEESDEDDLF

Take `N[C@@H](CCC(=O)N[C@@H](CSC1C=C(O)C(=O)C1)C(=O)NCC(=O)O)C(=O)O` (some centres unmarked) [GM, 2-hydroxy-4-glutathion-S-yl-2-cyclopenten-1-one]: the Adhesion rate in experiment [1] (0.1 μM) is given as 53.9%; in experiment [1] (1 μM), 48.3%; in experiment [1] (10 μM), 23.9%; in experiment [1] (100 μM), 16.3%. For the same compound, in experiment [1], the “Suppression of TNF-α-induced increase in adhesion rate (statement)” value was “suppressed”. The 3H-thymidine uptake in experiment [2] (30 mg/kg intraperitoneal, no stimulation with cancer cell) came out at 8700 CPM; in experiment [2] (30 mg/kg intraperitoneal, stimulation with cancer cell) it was 36291 CPM. Also, in experiment [2], the “Growth of spleen lymphocytes on stimulation with cancer cells (statement)” value is “significantly enhanced”. The “Activation of NK cells (statement)” value in experiment [3] is “Activation of NK cells was observed”.
In the case of `COC(=O)/C=C\C(=O)OC1C=CC(=O)C1OC(=O)CCC(=O)OC` (centres unmarked) [Dimethylmaleylcyclopentenone, dimethylmaleylcyclopentenone], the pIC50 in experiment [4] was 5.47. Also, the “Concentration at which change of DNA from superhelical type to relaxed type was partially or completely inhibited” value in experiment [5] was no less than 5 µM.
On to `O=C1C=CC(O)C1O` (centres unmarked) [Cyclopentenone, 4,5-dihydroxy-2-cyclopenten-1-one], for which the Adhesion rate was 51.7% in experiment [1] (0.1 μM), 46.0% in experiment [1] (1 μM), 22.2% in experiment [1] (10 μM) and 17.9% in experiment [1] (100 μM). The “Suppression of TNF-α-induced increase in adhesion rate (statement)” value in experiment [1] is recorded as “suppressed”. The 3H-thymidine uptake in experiment [2] (10 mg/kg intraperitoneal, no stimulation with cancer cell) is listed as 9680 CPM; in experiment [2] (10 mg/kg intraperitoneal, stimulation with cancer cell), 25756 CPM. Moreover, the “Growth of spleen lymphocytes on stimulation with cancer cells (statement)” value in experiment [2] is given as “significantly enhanced”. In addition, in experiment [3], the “Activation of NK cells (statement)” value is given as “Activation of NK cells was observed”.
